Reference: ChEMBL document CHEMBL1143173, “2D Autocorrelation, CoMFA, and CoMSIA modeling of protein tyrosine kinases' inhibition by substituted pyrido[2,3-d]pyrimidine derivatives” (Bioorg Med Chem, 2008)

Key:
[1] = biological target: Proto-oncogene tyrosine-protein kinase Src (Homo sapiens) (UniProt P12931); assay: Inhibition of cSrc
[2] = Inhibition of FGFR
[3] = Inhibition of PDGFR

Sequence of Proto-oncogene tyrosine-protein kinase Src (Homo sapiens) (P12931 2-536 limits assumed): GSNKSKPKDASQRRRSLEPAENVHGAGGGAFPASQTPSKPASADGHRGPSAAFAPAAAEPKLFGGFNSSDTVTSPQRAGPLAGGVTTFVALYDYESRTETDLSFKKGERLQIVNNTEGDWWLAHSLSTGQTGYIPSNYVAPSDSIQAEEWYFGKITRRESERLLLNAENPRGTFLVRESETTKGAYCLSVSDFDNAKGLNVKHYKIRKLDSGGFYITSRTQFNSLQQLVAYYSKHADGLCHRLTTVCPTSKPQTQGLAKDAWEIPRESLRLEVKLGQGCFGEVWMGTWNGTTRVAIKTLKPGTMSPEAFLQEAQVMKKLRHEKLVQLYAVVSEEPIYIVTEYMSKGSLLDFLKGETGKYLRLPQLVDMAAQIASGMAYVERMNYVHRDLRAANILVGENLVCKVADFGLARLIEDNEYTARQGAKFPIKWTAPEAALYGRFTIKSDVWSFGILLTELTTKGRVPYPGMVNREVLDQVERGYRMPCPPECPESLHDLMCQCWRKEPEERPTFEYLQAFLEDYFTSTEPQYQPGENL

| Compound | log(10^6/IC50) [1] | log(10^6/IC50) [2] | log(10^6/IC50) [3] |
| --- | --- | --- | --- |
| CN(C)c1ncc2cc(-c3c(Cl)cccc3Cl)c(=O)n(C)c2n1 | 1.3 | 1.3 | 1.3 |
| CN(C)c1cc(-c2cc3cnc(N)nc3nc2NC(=O)NC(C)(C)C)cc(N(C)C)c1 | 1.3 | 1.8 | 1.3 |
| COc1cc(OC)cc(-c2cc3cnc(N)nc3n(C)c2=O)c1 | 1.3 | 3.9 | 1.37 |
| CC(C)(C)NC(=O)Nc1nc2nc(N)ncc2cc1-c1cc(C(F)(F)F)cc(C(F)(F)F)c1 | 1.3 | 1.3 | 1.3 |
| Cc1ncc2cc(-c3c(Cl)cccc3Cl)c(=O)n(C)c2n1 | 1.3 | 1.3 | 1.3 |
| Cn1c(=O)c(-c2c(Cl)cccc2Cl)cc2cnc(Nc3ccc(CC(=O)O)cc3)nc21 | 5 | 4.21 | 4.15 |
| COc1ccc(NC(=O)Nc2nc3nc(NCCCN4CCN(C)CC4)ncc3cc2-c2c(Cl)cccc2Cl)cc1 | 4.55 | – | – |
| CCOc1cc(OCC)cc(-c2cc3cnc(N)nc3nc2NC(=O)NC(C)(C)C)c1 | 1.3 | 2.78 | 1.3 |
| CN1CCN(c2ccc(Nc3ncc4cc(-c5c(Cl)cccc5Cl)c(=O)n(C)c4n3)cc2)CC1 | 5 | 4.29 | 3.94 |
| Cn1c(=O)c(-c2c(Cl)cccc2Cl)cc2cncnc21 | 2 | 1.3 | 1.3 |
